Results reported in patent US20080009418A1, “Selective Inhibitors” (Alchemia LTD., priority 2004, published 2008).

Legend:
Mouse urotensin (mUR2) = target: T1, Mouse urotensin (mUR2) (Mus musculus, UniProt Q8VIH9); experiment: Radioligand binding, mouse urotensin mUR2 membranes, FlashPlate, [125I]-Urotensin II; settings: compound at 10 μM, [125I]-Urotensin II
T1 construct: purchased Perkin Elmer Biosignal
T1 sequence (Q8VIH9 1-385): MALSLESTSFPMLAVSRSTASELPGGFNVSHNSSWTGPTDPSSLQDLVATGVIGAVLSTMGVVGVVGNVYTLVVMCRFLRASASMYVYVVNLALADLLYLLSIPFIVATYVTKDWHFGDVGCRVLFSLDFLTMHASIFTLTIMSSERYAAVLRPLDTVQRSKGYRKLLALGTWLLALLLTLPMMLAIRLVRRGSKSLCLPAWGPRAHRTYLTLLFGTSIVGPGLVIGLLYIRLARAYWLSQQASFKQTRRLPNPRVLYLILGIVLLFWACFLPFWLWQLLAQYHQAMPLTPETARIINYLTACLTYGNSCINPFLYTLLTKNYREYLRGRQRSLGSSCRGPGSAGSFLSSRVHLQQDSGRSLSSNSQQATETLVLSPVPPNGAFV
In short: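 Cloned mouse urotensin (mUR2) receptor membranes from Perkin Elmer Biosignal were immobilized in FlashPlate microplates using a proprietary coating. Each well got 19.5 μl buffer, then 0.5 μl of DMSO, reference ligand, or compound. Adding 5 μl of [125I]-Urotensin II, diluted to 5× final concentration in binding buffer, started binding. Plates were sealed with TopSeal-A and incubated 1 hour at room temperature in the dark. Wells were counted for 30 seconds each on a TopCount after a 60-second delay, and percentage inhibition was calculated.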

Human δ-opioid (DOP) = target: T2, Human δ-opioid (DOP) (Homo sapiens, UniProt P41143); experiment: Radioligand binding, human δ-opioid (DOP) membranes, FlashPlate, [3H]-Bremazocine; settings: compound at 10 μM, [3H]-Bremazocine
T2 construct: purchased Perkin Elmer Biosignal
T2 sequence (P41143 whole entry): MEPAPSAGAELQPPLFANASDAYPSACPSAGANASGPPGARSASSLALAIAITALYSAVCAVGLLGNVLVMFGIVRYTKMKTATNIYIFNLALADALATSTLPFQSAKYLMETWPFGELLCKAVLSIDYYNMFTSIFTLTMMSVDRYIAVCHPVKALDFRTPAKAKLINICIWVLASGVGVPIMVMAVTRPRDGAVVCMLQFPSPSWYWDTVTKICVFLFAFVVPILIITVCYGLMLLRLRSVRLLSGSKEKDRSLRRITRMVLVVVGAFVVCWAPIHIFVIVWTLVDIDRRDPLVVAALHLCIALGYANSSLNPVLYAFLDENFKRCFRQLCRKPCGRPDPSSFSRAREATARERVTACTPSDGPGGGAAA
In short: (§1)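 Cloned human receptor membranes were coated onto FlashPlate wells and incubated with radioligand and compound (added from a 0.5 mM DMSO daughter plate) for 1 hour at room temperature in the dark. Scintillation counting gave percent inhibition, with DMSO defining total and reference ligand defining non-specific binding.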

[1] = target: T3, Human melanin-concentrating hormone (MCH1) (Homo sapiens, UniProt Q99705); experiment: Radioligand binding, human melanin-concentrating hormone MCH1 membranes, FlashPlate, [125I]-S36057; settings: compound at 10 μM
T3 construct: purchased Perkin Elmer Biosignal
T3 sequence (Q99705 whole entry): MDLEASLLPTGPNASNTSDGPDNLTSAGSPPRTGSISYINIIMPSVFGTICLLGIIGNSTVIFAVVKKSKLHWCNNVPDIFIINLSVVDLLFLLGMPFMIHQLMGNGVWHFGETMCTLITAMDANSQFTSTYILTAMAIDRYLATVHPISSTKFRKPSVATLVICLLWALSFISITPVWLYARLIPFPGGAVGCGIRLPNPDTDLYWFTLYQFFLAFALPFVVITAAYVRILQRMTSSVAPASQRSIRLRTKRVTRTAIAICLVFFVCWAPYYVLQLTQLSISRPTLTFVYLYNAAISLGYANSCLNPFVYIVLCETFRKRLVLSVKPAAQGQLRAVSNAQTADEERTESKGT
In short: as §1

Human Melanocortin (MC3) = target: T4, Human Melanocortin (MC3) (Homo sapiens, UniProt P41968); experiment: Radioligand binding, human melanocortin MC3 membranes, FlashPlate, [125I]-NDP-αMSH; settings: compound at 10 μM, [125I]-NDP-αMSH
T4 construct: purchased Perkin Elmer Biosignal
T4 sequence (P41968 whole entry): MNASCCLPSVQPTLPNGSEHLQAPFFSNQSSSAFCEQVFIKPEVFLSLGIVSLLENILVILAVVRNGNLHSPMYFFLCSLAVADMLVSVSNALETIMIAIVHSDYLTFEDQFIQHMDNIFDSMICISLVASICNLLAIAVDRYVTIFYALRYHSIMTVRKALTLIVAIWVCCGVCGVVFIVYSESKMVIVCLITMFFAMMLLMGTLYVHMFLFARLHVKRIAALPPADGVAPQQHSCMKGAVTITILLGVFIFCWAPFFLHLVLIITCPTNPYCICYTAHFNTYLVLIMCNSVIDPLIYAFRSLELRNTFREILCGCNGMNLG
In short: as §1

Human κ-Opioid (KOP) = target: T5, Human κ-Opioid (KOP) (Homo sapiens, UniProt P41145); experiment: Radioligand binding, human κ-opioid (KOP) membranes, filtration, [3H]-Diprenorphine; settings: compound at 10 μM, [3H]-Diprenorphine
T5 construct: purchased Perkin Elmer Biosignal
T5 sequence (P41145 whole entry): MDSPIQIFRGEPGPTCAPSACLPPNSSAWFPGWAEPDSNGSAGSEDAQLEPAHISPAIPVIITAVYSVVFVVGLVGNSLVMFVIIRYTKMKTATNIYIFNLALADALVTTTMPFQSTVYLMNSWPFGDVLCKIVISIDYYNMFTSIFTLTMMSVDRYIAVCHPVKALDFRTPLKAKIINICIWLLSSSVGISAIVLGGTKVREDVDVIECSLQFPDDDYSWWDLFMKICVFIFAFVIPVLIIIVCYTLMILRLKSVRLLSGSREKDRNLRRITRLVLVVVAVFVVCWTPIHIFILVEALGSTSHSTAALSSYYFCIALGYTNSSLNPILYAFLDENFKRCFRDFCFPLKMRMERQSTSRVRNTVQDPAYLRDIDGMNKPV
In short: (§2)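 Filtration binding on cloned human receptor membranes (1 Unit/well), [125I]-Substance P for NK1 and [3H]-Diprenorphine for KOP, 1 h at room temperature. Filters PEI-presoaked, washed with cold 50 mM Tris-HCl pH 7.4, counted by scintillation; percent inhibition calculated, reference ligand defining non-specific binding.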

[2] = target: T6, Human neuropeptide Y (NPY-Y1) (Homo sapiens, UniProt P25929); experiment: Radioligand binding, human neuropeptide Y NPY-Y1 membranes, FlashPlate, [125I]-PYY; settings: compound at 10 μM, [125I]-PYY
T6 construct: purchased Perkin Elmer Biosignal
T6 sequence (P25929 1-384): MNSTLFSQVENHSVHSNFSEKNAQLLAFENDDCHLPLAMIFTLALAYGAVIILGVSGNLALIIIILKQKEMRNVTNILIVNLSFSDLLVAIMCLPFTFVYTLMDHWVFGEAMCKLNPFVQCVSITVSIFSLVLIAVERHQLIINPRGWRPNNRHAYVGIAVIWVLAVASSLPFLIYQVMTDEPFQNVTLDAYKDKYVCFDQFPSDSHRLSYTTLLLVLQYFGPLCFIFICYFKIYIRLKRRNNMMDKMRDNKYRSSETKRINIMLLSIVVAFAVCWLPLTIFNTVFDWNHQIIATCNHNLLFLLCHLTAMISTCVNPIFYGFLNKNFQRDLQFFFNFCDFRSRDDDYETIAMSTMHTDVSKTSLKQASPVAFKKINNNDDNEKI
In short: as §1

Human μ-opioid (MOP) = target: T7, Human μ-opioid (MOP) (Homo sapiens, UniProt P35372); experiment: Radioligand binding, human μ-opioid (MOP) membranes, FlashPlate, [3H]-Naloxone; settings: compound at 10 μM, [3H]-Naloxone
T7 construct: purchased Perkin Elmer Biosignal
T7 sequence (P35372 whole entry): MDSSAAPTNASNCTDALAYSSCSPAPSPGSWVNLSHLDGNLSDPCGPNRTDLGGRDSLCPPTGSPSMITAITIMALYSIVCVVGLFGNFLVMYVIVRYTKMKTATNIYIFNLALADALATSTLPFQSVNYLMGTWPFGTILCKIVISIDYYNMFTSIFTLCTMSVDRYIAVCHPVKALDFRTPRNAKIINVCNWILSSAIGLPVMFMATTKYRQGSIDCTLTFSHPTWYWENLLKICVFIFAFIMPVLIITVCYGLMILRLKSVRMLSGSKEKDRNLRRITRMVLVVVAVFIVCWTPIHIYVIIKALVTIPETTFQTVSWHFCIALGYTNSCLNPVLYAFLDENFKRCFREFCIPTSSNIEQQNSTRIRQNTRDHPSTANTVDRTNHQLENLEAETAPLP
In short: as §1

Human Melanocortin (MC4) = target: T8, Human Melanocortin (MC4) (Homo sapiens, UniProt P32245); experiment: Radioligand binding, human melanocortin MC4 membranes, FlashPlate, [125I]-NDP-αMSH; settings: compound at 10 μM, [125I]-NDP-αMSH
T8 construct: purchased Perkin Elmer Biosignal
T8 sequence (P32245 whole entry): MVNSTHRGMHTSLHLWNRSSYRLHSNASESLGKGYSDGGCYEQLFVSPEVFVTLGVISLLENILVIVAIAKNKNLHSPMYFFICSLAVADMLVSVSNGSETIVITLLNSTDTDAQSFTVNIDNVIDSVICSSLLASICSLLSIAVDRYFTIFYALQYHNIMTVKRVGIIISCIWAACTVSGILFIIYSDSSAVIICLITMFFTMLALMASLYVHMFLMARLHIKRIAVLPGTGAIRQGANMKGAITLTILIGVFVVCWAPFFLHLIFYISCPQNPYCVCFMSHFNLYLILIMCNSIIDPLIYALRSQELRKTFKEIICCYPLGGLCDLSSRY
In short: as §1

Human opioid (ORL1) = target: T9, Human opioid (ORL1) (Homo sapiens, UniProt P41146); experiment: Radioligand binding, human opioid ORL1 membranes, FlashPlate, [125I]-Nociceptin; settings: compound at 10 μM, [125I]-Nociceptin
T9 construct: purchased Perkin Elmer Biosignal
T9 sequence (P41146 whole entry): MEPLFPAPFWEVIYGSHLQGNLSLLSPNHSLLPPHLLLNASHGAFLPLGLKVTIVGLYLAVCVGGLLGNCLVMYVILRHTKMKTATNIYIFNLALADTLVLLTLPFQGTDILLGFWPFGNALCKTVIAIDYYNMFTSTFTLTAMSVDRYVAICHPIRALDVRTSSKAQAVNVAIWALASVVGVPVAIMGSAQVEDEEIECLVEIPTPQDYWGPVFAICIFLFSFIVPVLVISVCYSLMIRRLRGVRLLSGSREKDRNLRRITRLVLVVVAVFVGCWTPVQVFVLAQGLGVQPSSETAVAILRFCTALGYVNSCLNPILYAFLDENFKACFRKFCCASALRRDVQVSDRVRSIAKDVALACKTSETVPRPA
In short: as §1

Human melanocortin (MC5) = target: T10, Human melanocortin (MC5) (Homo sapiens, UniProt P33032); experiment: Radioligand binding, human melanocortin MC5 membranes, FlashPlate, [125I]-NDP-αMSH; settings: compound at 10 μM, [125I]-NDP-αMSH
T10 construct: purchased Perkin Elmer Biosignal
T10 sequence (P33032 whole entry): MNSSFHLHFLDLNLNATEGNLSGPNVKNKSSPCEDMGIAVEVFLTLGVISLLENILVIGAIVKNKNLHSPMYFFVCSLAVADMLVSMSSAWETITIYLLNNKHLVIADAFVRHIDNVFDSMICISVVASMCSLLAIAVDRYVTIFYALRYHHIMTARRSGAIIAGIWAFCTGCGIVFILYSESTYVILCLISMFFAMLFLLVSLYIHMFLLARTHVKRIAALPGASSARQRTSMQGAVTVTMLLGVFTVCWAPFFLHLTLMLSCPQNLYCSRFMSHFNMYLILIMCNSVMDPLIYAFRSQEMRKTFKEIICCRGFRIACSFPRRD
In short: as §1

Human neurokinin (NK1) = target: T11, Human neurokinin (NK1) (Homo sapiens, UniProt P25103); experiment: Radioligand binding, human neurokinin NK1 membranes, filtration, [125I]-Substance P; settings: compound at 10 μM, [125I]-Substance P
T11 construct: purchased Perkin Elmer Biosignal
T11 sequence (P25103 whole entry): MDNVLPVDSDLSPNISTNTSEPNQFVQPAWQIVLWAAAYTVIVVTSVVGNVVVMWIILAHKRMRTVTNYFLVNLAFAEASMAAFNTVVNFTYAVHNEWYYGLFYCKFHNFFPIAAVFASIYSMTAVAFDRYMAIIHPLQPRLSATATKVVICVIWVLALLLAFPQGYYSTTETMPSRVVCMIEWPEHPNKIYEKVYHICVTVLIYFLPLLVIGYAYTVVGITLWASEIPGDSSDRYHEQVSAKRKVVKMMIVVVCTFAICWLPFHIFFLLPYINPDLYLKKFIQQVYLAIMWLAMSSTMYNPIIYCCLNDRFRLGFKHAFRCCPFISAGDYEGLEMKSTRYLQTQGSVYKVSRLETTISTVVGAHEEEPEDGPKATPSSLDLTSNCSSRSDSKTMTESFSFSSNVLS
In short: as §2

Structure (SMILES) | A11: inhibition of radioligand binding (Mouse urotensin (mUR2); mouse mUR2 membranes) | A1: inhibition of radioligand binding (Human δ-opioid (DOP); human DOP membranes) | A3: inhibition of radioligand binding (Human Melanocortin (MC3); human MC3 membranes) | A9: inhibition of radioligand binding ([2]; human NPY-Y1 membranes) | A10: inhibition of radioligand binding (Human opioid (ORL1); human ORL1 membranes, 10 µM) | A5: inhibition of radioligand binding (Human melanocortin (MC5); human MC5 membranes) | A8: inhibition of radioligand binding (Human neurokinin (NK1); human NK1 membranes) | A11: inhibition of radioligand binding (Mouse urotensin (mUR2); FlashPlate) | A1: inhibition of radioligand binding (Human δ-opioid (DOP); FlashPlate) | A6: inhibition of radioligand binding ([1]; [125I]-S36057, FlashPlate) | A3: inhibition of radioligand binding (Human Melanocortin (MC3); FlashPlate) | A2: inhibition of radioligand binding (Human κ-Opioid (KOP); filtration) | A9: inhibition of radioligand binding ([2]; FlashPlate) | A7: inhibition of radioligand binding (Human μ-opioid (MOP); FlashPlate) | A4: inhibition of radioligand binding (Human Melanocortin (MC4); FlashPlate) | A10: inhibition of radioligand binding (Human opioid (ORL1); FlashPlate) | A5: inhibition of radioligand binding (Human melanocortin (MC5); FlashPlate) | A8: inhibition of radioligand binding (Human neurokinin (NK1); filtration) | further results
NCCCC(=O)NC1C(OCc2ccc3ccccc3c2)OC(COCc2ccccc2)C(O)C1OCc1ccccc1 (single isomer, unassigned) [compound 467] | − (“−” indicates less than 50% inhibition at 10 μM) | − (“−” indicates less than 50% inhibition at 10 μM) | − (“−” indicates less than 50% inhibition at 10 μM) | − (“−” indicates less than 50% inhibition at 10 μM) | − (“−” indicates less than 50% inhibition at 10 μM) | − (“−” indicates less than 50% inhibition at 10 μM) | + (“+” indicates greater than 50% inhibition at 10 μM) |  |  |  |  |  |  |  |  |  |  |  | A6: inhibition of radioligand binding ([1]; [125I]-S36057, human MCH1 membranes): − (“−” indicates less than 50% inhibition at 10 μM); A2: inhibition of radioligand binding (Human κ-Opioid (KOP); human KOP membranes): − (“−” indicates less than 50% inhibition at 10 μM); A7: inhibition of radioligand binding (Human μ-opioid (MOP); human MOP membranes, 10 µM): − (“−” indicates less than 50% inhibition at 10 μM); A4: inhibition of radioligand binding (Human Melanocortin (MC4); human MC4 membranes, 10 µM): − (“−” indicates less than 50% inhibition at 10 μM)
COCC1OC(OCc2ccc(Cl)cc2)C(NC(=O)CCNC(=N)N)C(OCc2ccc(Cl)cc2)C1O (stereo not shown) [compound 202] |  |  |  |  |  |  |  | − (“−” indicates less than 50% inhibition at 10 μM) | − (“−” indicates less than 50% inhibition at 10 μM) | + (“+” indicates greater than 50% inhibition at 10 μM) | + (“+” indicates greater than 50% inhibition at 10 μM) | − (“−” indicates less than 50% inhibition at 10 μM) | − (“−” indicates less than 50% inhibition at 10 μM) | − (“−” indicates less than 50% inhibition at 10 μM) | + (“+” indicates greater than 50% inhibition at 10 μM) | − (“−” indicates less than 50% inhibition at 10 μM) | + (“+” indicates greater than 50% inhibition at 10 μM) | + (“+” indicates greater than 50% inhibition at 10 μM) | 
COCC1OC(OCc2ccc3ccccc3c2)C(NC(=O)CCCNC(=N)N)C(OCc2ccc3ccccc3c2)C1O (stereo not shown) [compound 250] |  |  |  |  |  |  |  | − (“−” indicates less than 50% inhibition at 10 μM) | − (“−” indicates less than 50% inhibition at 10 μM) | + (“+” indicates greater than 50% inhibition at 10 μM) | − (“−” indicates less than 50% inhibition at 10 μM) | − (“−” indicates less than 50% inhibition at 10 μM) | − (“−” indicates less than 50% inhibition at 10 μM) | − (“−” indicates less than 50% inhibition at 10 μM) | + (“+” indicates greater than 50% inhibition at 10 μM) | + (“+” indicates greater than 50% inhibition at 10 μM) | + (“+” indicates greater than 50% inhibition at 10 μM) | + (“+” indicates greater than 50% inhibition at 10 μM) | 
NCCCC(=O)NC1C(OCc2ccc3ccccc3c2)OC(COCc2ccc(Cl)cc2)C(O)C1OCc1ccc2ccccc2c1 (single isomer, unassigned) [compound 464] | − (“−” indicates less than 50% inhibition at 10 μM) | − (“−” indicates less than 50% inhibition at 10 μM) | + (“+” indicates greater than 50% inhibition at 10 μM) | − (“−” indicates less than 50% inhibition at 10 μM) | + (“+” indicates greater than 50% inhibition at 10 μM) | + (“+” indicates greater than 50% inhibition at 10 μM) | + (“+” indicates greater than 50% inhibition at 10 μM) |  |  |  |  |  |  |  |  |  |  |  | A6: inhibition of radioligand binding ([1]; [125I]-S36057, human MCH1 membranes, 10 µM): + (“+” indicates greater than 50% inhibition at 10 μM); A2: inhibition of radioligand binding (Human κ-Opioid (KOP); human KOP membranes, 10 µM): − (“−” indicates less than 50% inhibition at 10 μM); A7: inhibition of radioligand binding (Human μ-opioid (MOP); human MOP membranes): − (“−” indicates less than 50% inhibition at 10 μM); A4: inhibition of radioligand binding (Human Melanocortin (MC4); human MC4 membranes): + (“+” indicates greater than 50% inhibition at 10 μM)
COCC1OC(OCCc2ccccc2)C(NC(=O)CCCN)C(OCc2ccc(Cl)cc2)C1O (stereo not shown) [compound 222] |  |  |  |  |  |  |  | − (“−” indicates less than 50% inhibition at 10 μM) | − (“−” indicates less than 50% inhibition at 10 μM) | − (“−” indicates less than 50% inhibition at 10 μM) | − (“−” indicates less than 50% inhibition at 10 μM) | − (“−” indicates less than 50% inhibition at 10 μM) | − (“−” indicates less than 50% inhibition at 10 μM) | − (“−” indicates less than 50% inhibition at 10 μM) | − (“−” indicates less than 50% inhibition at 10 μM) | − (“−” indicates less than 50% inhibition at 10 μM) | + (“+” indicates greater than 50% inhibition at 10 μM) | + (“+” indicates greater than 50% inhibition at 10 μM) | 
